# Measurements reported in US8703779B2, “Preparation of crystalline forms of dihydropyrazolopyrimidinone” (Merck Sharp & Dohme Corp., priority 2009, dated 2014).
# Columns and labels:
# Weel kinase = Weel kinase (Homo sapiens, UniProt P30291); conditions: cited from earlier work
# [1] = relative thermodynamic stability of crystalline forms; assay type: physicochemical
# Procedure: The novel crystalline forms of Compound A or a salt thereof, especially the hemihydrates described herein, can be provided stably and constantly from the standpoint of the manufacturing process, and are useful in the treatment of cancer. […] The relative stability of the hemihydrates and monohydrate Form G at relative humidity higher than 93% has been difficult to establish, because the solubility of the three crystalline forms are very close (difference <1 mg/mL) and the conversion is very slow.
# Sequence of Weel kinase (P30291 whole entry): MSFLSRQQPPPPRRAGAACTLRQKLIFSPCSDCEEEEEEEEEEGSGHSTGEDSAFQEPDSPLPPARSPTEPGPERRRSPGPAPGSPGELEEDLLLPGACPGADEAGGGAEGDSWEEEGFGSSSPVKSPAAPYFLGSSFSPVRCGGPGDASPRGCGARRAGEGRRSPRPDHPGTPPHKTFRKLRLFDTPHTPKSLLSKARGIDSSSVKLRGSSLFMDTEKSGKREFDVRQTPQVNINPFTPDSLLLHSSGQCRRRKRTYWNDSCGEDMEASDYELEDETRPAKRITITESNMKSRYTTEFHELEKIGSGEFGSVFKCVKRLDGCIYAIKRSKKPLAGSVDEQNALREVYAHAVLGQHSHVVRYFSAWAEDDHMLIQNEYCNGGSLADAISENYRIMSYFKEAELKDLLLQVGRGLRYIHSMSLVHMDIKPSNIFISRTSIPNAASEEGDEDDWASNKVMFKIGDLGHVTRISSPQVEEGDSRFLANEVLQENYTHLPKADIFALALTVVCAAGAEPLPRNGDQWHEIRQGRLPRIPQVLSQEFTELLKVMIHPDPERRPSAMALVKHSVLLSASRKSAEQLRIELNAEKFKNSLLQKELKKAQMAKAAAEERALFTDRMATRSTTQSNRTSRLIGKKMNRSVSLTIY
compound,measurement,setting,value
"C=CCn1c(=O)c2cnc(Nc3ccc(N4CCN(C)CC4)cc3)nc2n1-c1cccc(C(C)(C)O)n1 [Compound A, 2-allyl-1-[6-(1-hydroxy-1-methylethyl)pyridin-2-yl]-6-{[4-(4-methylpiperazin-1-yl)phenyl]amino}-1,2-dihydro-3H-pyrazolo[3,4-d]pyrimidin-3-one]",Weel kinase inhibitory effect,Weel kinase,excellent Weel kinase inhibitory effect
"C=CCn1c(=O)c2cnc(Nc3ccc(N4CCN(C)CC4)cc3)nc2n1-c1cccc(C(C)(C)O)n1 [crystalline hemihydrate form I, 2-allyl-1-[6-(1-hydroxy-1-methylethyl)pyridin-2-yl]-6-{[4-(4-methylpiperazin-1-yl)phenyl]amino}-1,2-dihydro-3H-pyrazolo[3,4-d]pyrimidin-3-one]",thermodynamic stability relative to other known forms,[1]; temperatures up to 44° C. and relative humidity range of 14-93%,more stable thermodynamically than other known forms
"C=CCn1c(=O)c2cnc(Nc3ccc(N4CCN(C)CC4)cc3)nc2n1-c1cccc(C(C)(C)O)n1 [crystalline hemihydrate form II, 2-allyl-1-[6-(1-hydroxy-1-methylethyl)pyridin-2-yl]-6-{[4-(4-methylpiperazin-1-yl)phenyl]amino}-1,2-dihydro-3H-pyrazolo[3,4-d]pyrimidin-3-one]",thermodynamic stability relative to other known forms,[1]; temperatures equal or higher than 48° C. and relative humidity range of 19-93%,more stable thermodynamically than other known forms
